Data on 9 molecules can be found in patent US20240237646A1, “METHODS OF DECREASING PLANT INJURY AND IMPROVING CROP YIELD” (priority 2023, published 2024).

Series [1] has as its system genetically modified (GMO) soybeans engineered to resist 2,4-D. Description: Study, B Sure + herbicides in GMO soybeans (canopy rating). The class given is in vivo, soybean. The conditions noted are these: lactofen 218, 2,4-D choline 1064, chlorimuron 13 g ai/ha; for Canopy rating relative to % ground cover: GMO soybeans V3-R1, B Sure 1 pt/A in mixtures, larger = greater crop vigor; for % Increase in soybean canopy measure with B Sure ® added: herbicide + B Sure 1 pt/A compared to the herbicide applied alone. The text has this:
Treatments included 1) B Sure® 1 pt/A; 2) Lactofen 218 g ai/ha; 3) Lactofen 218 g ai/ha+B Sure® 1 pt/A; 4) 2,4-D choline 1064 g ai/ha; 5) 2,4-D choline 1064 g ai/ha+B Sure® 1 pt/A; 6) chlorimuron 13 g ai/ha; 7) chlorimuron 13 g ai/ha+B Sure® 1 pt/A. Adjuvants applied varied by treatment and were consistent with product label recommendations. A preemergence herbicide was applied to all treatments in order to reduce competition from weed species that would increase variability in the study. A canopy rating was made which evaluated the % ground cover differences of the soybeans associated with the various treatments. In these measurements, the larger ground cover number represents a greater amount of soybean leaf tissue which represents greater crop vigor and overall soybean health.

The next series deals with soybeans (Glycine max). The conditions noted are these: fomesafen 350 g ai/ha alone. The source says: The study was arranged in a randomized complete block design with 6 replicates in conventionally tilled soybeans (Glycine max).
Herbicides were applied in a water carrier of 20 gallons per acre and treatments were applied at first flower (V5/R1). All fomesafen treatments contained an adjuvant system of 1% v/v crop oil concentrate and 2.5% v/v urea ammonium nitrate as is consistent with product label instructions.

Series [2] relates to genetically modified (GM) soybeans (Enlist E3® soybeans). The series is described as follows: Four field studies, B Sure + lactofen or 2,4-D in GM soybeans (yield). It is filed as in vivo, Glycine max. To be noted: for Yield (bushels/acre): lactofen 210 g ai/ha, 2,4-D choline salt 2,527 g ai/ha, check 62.2. As for the experimental part:
Four field studies were conducted in 2023 in the states of Ohio, Nebraska, Indiana, and Illinois to determine the influence of the “HYT plant ameliorant” B Sure® at 1,170 mls/ha on soybean (Glycine max) yield when applied in combinations with the herbicides lactofen at 210 g ai/ha and 2,4-D (as its choline salt) at 2,527 g ai/ha on genetically modified (GM) soybeans (Enlist E3® soybeans) created to tolerate applications of 2,4-D, glufosinate, and glyphosate. Treatments were applied using a water carrier with crop oil concentrate added to all treatments at 1% v/v and ammonium sulfate at 2.24 kg/ha added to herbicide containing treatments. Yields were adjusted to constant moisture and recorded in bushels/acre. […] All plots were maintained weed free.

Series [3] relates to creeping bentgrass (Agrostis palustris) turf. The conditions noted are these: 6 applications every two weeks, 8 visual ratings combined, trinexapac-ethyl 514, paclobutrazol 280, prohexadione-calcium 154, flurprimidol 15 g ai/ha, B Sure 19,091 ml/ha in mixtures.
Excerpt: Each plant growth regulator (PGR) combination was applied in 2 gallons of water per 1,000 square feet and applications were made 6 times with application intervals every two weeks. Visual injury was rated 8 times between June 8th and August 11th on a percent scale from 0 to 100 where 0 equals no visual response and 100 equals complete plant death.
Series [4] concerns creeping bentgrass (Agrostis stolonifera). Description: Field study, B Sure + PCNB on creeping bentgrass (visual injury). To be noted: PCNB 227 g ai/1,000 sq ft, B Sure 6 fl oz/1,000 sq ft in the mixture. The text has this: PCNB was applied at 227 g ai/per 1,000 square feet. […] Treatments were applied on July 14th using an application volume of 2 gallons per 1,000 square feet. Creeping bentgrass injury ratings were made five times corresponding to 3, 7, 10, 14 and 28 days after application (DAA).

Series [5] concerns cotton (Gossypium hirsutum). Description: Six field studies, B Sure + trifloxysulfuron in cotton (visual injury). The class given is in vivo. The conditions noted are these: trifloxysulfuron 8 g ai/ha alone, rated 2 to 3 weeks after application. The text has this:
The studies were arranged in a randomized complete block design with 4 replicates in conventionally tilled cotton. Evaluations were combined over locations and plots were maintained weed free over the duration of the trial.
Herbicides were applied in a water carrier to cotton at three separate stages of growth: 1) cotyledon-2 leaf; 2) 3-4 leaf; and 3) 5 leaf or greater. All trifloxysulfuron treatments contained a nonionic surfactant at 0.25% v/v as is consistent with product label instructions. Treatments included in the trial were the following: 1) trifloxysulfuron 8 g ai/ha-cotyledon-2 leaf cotton; 2) trifloxysulfuron 8 g ai/ha+B Sure® 1,170 mls/ha-cotyledon-2 leaf cotton; 3) trifloxysulfuron 8 g ai/ha+B Sure® 2 pint/acre-cotyledon-2 leaf cotton; 4) trifloxysulfuron 8 g ai/ha-3-4 leaf cotton, 5) trifloxysulfuron 8 g ai/ha+B Sure® 1,170 mls/ha-3-4 leaf cotton; 6) trifloxysulfuron 8 g ai/ha+B Sure® 2,340 mls/ha-3-4 leaf cotton; 7) trifloxysulfuron 8 g ai/ha-5 leaf or greater cotton, 8) trifloxysulfuron 8 g ai/ha+B Sure® 1,170 mls/ha-5 leaf or greater cotton; 9) trifloxysulfuron 8 g ai/ha+B Sure® 2, 340 mls/ha-5 leaf or greater cotton; 10) Check.

Consider `COc1cc(Cl)nc(NC(=O)NS(=O)(=O)c2ccccc2C(=O)O)n1` [Chlorimuron, chlorimuron], for which, in series [1], the “Canopy rating relative to % ground cover” value is on record as 6.25 and the “% Increase in soybean canopy measure with B Sure ® added” value (“% Increase in soybean canopy measure” below) came to 10.9%.
For the molecule `CS(=O)(=O)NC(=O)c1cc(Oc2ccc(C(F)(F)F)cc2Cl)ccc1[N+](=O)[O-]` [Fomesafen, fomesafen], the “Soybean Yield (% increase over untreated check)” value with soybeans (Glycine max) turned out to be 4.6%. In the series on soybeans (Glycine max) (soybean, applied at V5/R1, visual scale 0-100), the “% Injury” value is given as 7%.
As for `C[N+](C)(C)CCO.O=C([O-])COc1ccc(Cl)cc1Cl` [2,4-D Choline, 2,4-D choline salt], in series [1], the “Canopy rating relative to % ground cover” value came out at 6.18 and the “% Increase in soybean canopy measure” value stood at 12.9%. Moreover, the “soybean yield increase over the check” value in series [2] (B Sure 1,170 mls/ha, lactofen 210 g ai/ha, 2,4-D 2,527 g ai/ha) is reported as 3.1 bushels/acre. The “Yield (bushels/acre)” value in series [2] (B Sure 1,170 mls/ha) turned out to be 65.3 bushels/acre.
For the molecule Prohexadione-calcium, the “% Phytotoxicity” value in series [3] is 12%.
On to `CCOC(=O)C1CC(=O)C(=C(O)C2CC2)C(=O)C1` (centres unmarked) [Trinexapac-ethyl], for which the “% Phytotoxicity” value in series [3] is given as 10%.
Still for that read-out and setting: the result for `CC(C)(C)[C@@H](O)[C@@H](Cc1ccc(Cl)cc1)n1cncn1` (racemic) [Paclobutrazol] reads 10%.
Turning to `CCOC(=O)C(C)OC(=O)c1cc(Oc2ccc(C(F)(F)F)cc2Cl)ccc1[N+](=O)[O-]` (centres unmarked) [Lactofen, lactofen], in series [1], the “Canopy rating relative to % ground cover” value turned out to be 2.99 and the “% Increase in soybean canopy measure” value was found to be 7.4%. Further, the “Yield (bushels/acre)” value in series [2] (B Sure 1,170 mls/ha) is given as 61.5 bushels/acre. Besides, the “soybean yield reduction over the untreated check” value in series [2] (lactofen 210 g ai/ha) was determined as 0.7 bushels/acre.
Turning to `O=[N+]([O-])c1c(Cl)c(Cl)c(Cl)c(Cl)c1Cl` [PCNB, pentachloronitrobenzene], the “% Injury 3 DAA” value in series [4] (3 days after application) is 20%. Also, in series [4] (7 days after application), the “% Injury 7 DAA” value is 100%. Also, the “% Injury 10 DAA” value in series [4] (10 days after application) came to 100%. Moreover, the “% Injury 14 DAA” value in series [4] (14 days after application) came to 100%. Further, in series [4] (28 days after application (end of trial)), the “% Injury 28 DAA” value was ~100%.
Consider `COc1cc(OC)nc(NC(=O)NS(=O)(=O)c2ncccc2OCC(F)(F)F)n1` [Trifloxysulfuron, trifloxysulfuron], for which the “% Injury” value in series [5] (3-4 leaf) is 15%; in series [5] (5+ leaf) it was 5%; in series [5] (Cotyledon-2 leaf), 18%.
